In ChEMBL document CHEMBL1127991, “Design, synthesis and evaluation of dual domain FKBP ligands” (Bioorg Med Chem Lett, 1994):
pIC50, pKi: −log10 of the molar value.

Legend:
[1] = biological target: T1, Peptidyl-prolyl cis-trans isomerase FKBP1A (Homo sapiens, UniProt P62942); assay: Compound was tested for inhibitory activity against FK506 binding protein 12 (FKBP12); settings: read-out: Ki app
[2] = Immunosuppressant-like activity in an in vitro splenocyte mitogenesis assay at concentration up to 10 uM; ND means not detected; type: functional
[3] = biological target: T1, Peptidyl-prolyl cis-trans isomerase FKBP1A; assay: Compound was tested for inhibitory activity against FK506 binding protein 12 (FKBP12); Value ranges from 190-900 nM; settings: read-out: Ki app
[4] = Immunosuppressant-like activity in an in vitro splenocyte mitogenesis assay at concentration up to 10 uM; type: functional

T1 sequence (P62942 whole entry): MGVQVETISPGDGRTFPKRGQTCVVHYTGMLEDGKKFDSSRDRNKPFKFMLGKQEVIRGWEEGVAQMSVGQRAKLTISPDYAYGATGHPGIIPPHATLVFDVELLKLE

Question: With CCC(C)(C)C(=O)C(=O)N1CCCC[C@H]1C(=O)O[C@H](CCc1ccccc1)c1cccc(C(=O)c2ccccc2)c1 as the compound, how does the pKi [1] read?
Answer: Its pKi is 8.30.

Question: What about the IC50 [2] of the same compound?
Answer: The IC50 was “Not detected”.

Question: With CCC(C)(C)C(=O)C(=O)N1CCCC[C@H]1C(=O)O[C@H](CCc1ccccc1)C(C)(C)/C=C/C(=O)c1ccccc1 as the compound, how does the IC50 [2] read?
Answer: Its IC50 is “Not detected”.

Question: And the pKi [3]?
Answer: Its pKi is 6.72.

Question: For CCCC(CCC)C(=O)/C=C/C(C)(C)[C@@H](CCc1ccccc1)OC(=O)[C@@H]1CCCCN1C(=O)C(=O)C(C)(C)CC, which IC50 [2] is on record?
Answer: Its IC50 is “Not detected”.

Question: And the pKi [3]?
Answer: Its pKi is 6.72.

Question: With C=CC[C@@H]1/C=C(\C)C[C@H](C)C(=O)OCCCC(C)(C)C(=O)C(=O)N2CCCC[C@H]2C(=O)OCCCOC1=O as the compound, how does the pKi [1] read?
Answer: Its pKi is 6.40.

Question: With C=CC[C@@H]1/C=C(\C)C[C@H](C)C(=O)OCC(C)(C)C(=O)C(=O)N2CCCC[C@H]2C(=O)O[C@H](CCc2ccccc2)[C@H](C)COC1=O as the compound, how does the pKi [1] read?
Answer: The pKi was 5.22.

Question: With CCC(C)(C)C(=O)C(=O)N1CCCC[C@H]1C(=O)O[C@H](CCc1ccccc1)C(C)(C)/C=C/C(=O)C1CCCCC1 as the compound, how does the pKi [1] read?
Answer: The pKi was 6.47.

Question: What about the IC50 [2] of the same compound?
Answer: Its IC50 is “Not detected”.

Question: With CC1(C)COC(=O)CCCCCCCCC(=O)c2cccc(c2)C(CCc2ccccc2)OC(=O)[C@@H]2CCCCN2C(=O)C1=O (stereo partly drawn) as the compound, how does the pKi [1] read?
Answer: Its pKi is 7.70.

Question: With CC1(C)COC(=O)CCCCC(=O)/C=C/C(C)(C)[C@@H](CCc2ccccc2)OC(=O)[C@@H]2CCCCN2C(=O)C1=O as the compound, how does the pKi [1] read?
Answer: Its pKi is 6.76.

Question: With CC1(C)COC(=O)CCCCC(=O)CCC(C)(C)[C@@H](CCc2ccccc2)OC(=O)[C@@H]2CCCCN2C(=O)C1=O as the compound, how does the pKi [1] read?
Answer: Its pKi is 7.60.

Question: With C=CCN(CC=C)C(=O)c1cccc([C@@H](CCc2ccccc2)OC(=O)[C@@H]2CCCCN2C(=O)C(=O)C(C)(C)CC)c1 as the compound, how does the pKi [1] read?
Answer: The pKi was 8.30.

Question: What about the IC50 [2] of the same compound?
Answer: The IC50 was “Not detected”.

Question: With C=CC[C@@H]1/C=C(\C)C[C@H](C)C(=O)OCC(C)(C)C(=O)C(=O)N2CCCC[C@H]2C(=O)OCCCOC1=O as the compound, how does the pKi [1] read?
Answer: The pKi was 6.89.

Question: With C=CC[C@@H]1/C=C(\C)C[C@H](C)C(=O)OCCCC(C)(C)C(=O)C(=O)N2CCCC[C@H]2C(=O)O[C@H](CCc2ccccc2)[C@H](C)COC1=O as the compound, how does the pKi [1] read?
Answer: Its pKi is less than 5.30.

Question: With C=CC[C@@H]1/C=C(\C)C[C@H](C)C[C@H](OC)[C@H]2O[C@@](O)(C(=O)C(=O)N3CCCC[C@H]3C(=O)O[C@H](/C(C)=C/[C@@H]3CC[C@@H](O)[C@H](OC)C3)[C@H](C)[C@@H](O)CC1=O)[C@H](C)C[C@@H]2OC [TACROLIMUS ANHYDROUS] as the compound, how does the pIC50 [4] read?
Answer: Its pIC50 is 9.00.
